From article PMC6692352, “DF2726A, a new IL-8 signalling inhibitor, is able to counteract chemotherapy-induced neuropathic pain” (Scientific Reports, 2019)

Assays:
[1] = Pharmacokinetics in the rat, intravenous and oral; format: in vivo, Sprague Dawley rats
Protocol: Pharmacokinetics studies in the rat
DF2726A was administered to male Sprague Dawley rats (Charles River Srl. Calco Italy, 6-8 weeks old, n = 4/groups) intravenously (5 mg/kg, Dulbecco’s phosphate buffered saline) and orally (5 mg/kg Dulbecco’s phosphate buffered saline).
On day of treatment, an exact amount of DF2726A was dissolved in the appropriate volume of vehicle to obtain a final concentration of 2.0 mg/mL (IV) and 1 mg/mL (OS). Both of the formulations were filtered at 0.45 μm filter before use in animals.
After the administration of DF2726A, a 0.15-0.20 mL of blood was collected via jugular vein catheters with zero-dead volume disposable syringes (1 mL iv Insulin syringes with attached 25G […]
5/8 inch needles; Chemil s.r.l., Padova, Italy) at 0.08, 0.5, 1, 3, 6, 12, 24, 36 and 48 h for i.v. dosing and at 0.25, 0.5, 1, 3, 6, 12, 24, 36 and 48 h for oral dosing. After each blood withdrawal, the catheters were washed with 0.15-0.2 mL of sterile physiological saline and filled with 0.03 mL of heparin saline solution (0.25 U.I/mL). The heparinized blood was immediately centrifuged (8000 RPM for 5 min at approximately 4°C) and the resultant plasma transferred into vials and stored at - 20°C until analysis. DF2726A concentrations were quantified by HLPC-MS/MS using a chromatographic method with a lower limit of quantitation of 1 ng·mL -1. Non-compartmental analysis (Gibaldi and Perrier, 1982) were used to calculate the pharmacokinetic parameters using a MKModel by Nick Holford software Version 4, (Biosoft, Ferguson, MO 63 135, USA). […]

[2] = test system: Iba-1; assay: Western blot of DRG of oxaliplatin rats, microglia marker Iba-1; format: in vivo, male Wistar rats; settings: 30 mg/kg os; p < 0.01 vs OXA rats
Protocol: (§1) Animals were sacrificed and dorsal root ganglia (DRG) (L4-L6) were removed and stored at […]. They were homogenized on ice-cold lysis buffer [20 mM Tris–HCl (pH 7.5), 10 mM NaF, 150 mM NaCl, 1% Nonidet P-40, 1 mM phenylmethylsulfonyl fluoride, 1 mM Na3VO4, leupeptin and trypsin inhibitor 10 μg/mL; 20 µl/sample, as previously described.
(§2) After 1 h, tissue lysates were obtained by centrifugation at 20,000 g for 15 min at 4 °C. Protein concentrations were estimated by the Bio-Rad protein assay using bovine serum albumin as standard.
(§3) DRG lysate proteins (30 μg) were dissolved in Laemmli sample buffer, boiled for 5 min, and separated on SDS-polyacrylamide gel elctrophoresis and transferred onto nitrocellulose membrane (240 mA for 40 min at room temperature). […] The protein bands were scanned and densitometrically analyzed with a model GS-700 imaging densitometer (Bio-Rad Laboratories, Milan, Italy). […]

[3] = test system: GFAP; assay: Western blot of DRG of oxaliplatin rats, astrocyte marker GFAP; format: in vivo, male Wistar rats; settings: 30 mg/kg os; p < 0.01 vs OXA rats
Protocol: as §1, §2, §3

[4] = test system: TRPA1; assay: Western blot of DRG of oxaliplatin rats, TRPA1; format: in vivo, male Wistar rats; settings: 30 mg/kg os
Protocol: as §1, §2, §3

[5] = test system: p-ERK1/2; assay: p-ERK1/2 western blotting in F11-derived neurons; format: cell-based; settings: DF2726A 1 µM + oxaliplatin 20 µM, 24 h
Protocol: Following neuronal differentiation, neurons were treated for 24 h with DF2726A (1 μM final concentration), oxaliplatin (Sigma-Aldrich; 20 µM final concentration), or the combination of the two molecules.
Control and treated cells were collected and lysed in ice-cold RIPA buffer (PBS pH 7.4 containing 0.5% sodium deoxycolate, 1% Igepal, 0.1% SDS, 5 mM EDTA, 1% protease and phosphatase inhibitor cocktails; Sigma-Aldrich) as described in[22],[33]. Protein lysates (30 μg) were separated on 8–12% SDS-polyacrilamide gel and electroblotted onto polyvinyldifluoride membrane (PVDF; Sigma-Aldrich). Nonspecific binding sites were blocked by 5% non-fat dry milk (Bio-Rad Laboratories, Hercules, CA, USA) in Tris buffered saline (TBS: 20 mM Tris- HCl, pH 7.4, containing 150 mM NaCl) for 30 min at RT. […] The relative densities of immunoreactive bands were determined and normalized HRP-conjugated β-actin, using ImageJ software. […]

[6] = single 5 mg/kg intravenous dose

Structure (SMILES): CC(C)(C(=O)O)c1ccc(Nc2nc(C(F)(F)F)cs2)cc1 [DF2726A]
- AUC0-last Oral ([1]; 5 mg/kg oral dose): 136.3 ± 22.6 µg·h/mL
- Cmax Oral ([1]; 5 mg/kg oral dose): 6860 ± 1600 ng/mL
- t1/2 Oral ([1]; 5 mg/kg oral dose): 16.2 ± 3.3 h
- tmax Oral ([1]; 5 mg/kg oral dose): 6.0 h
- F (oral bioavailability) ([1]; 5 mg/kg oral vs 5 mg/kg intravenous): 96.8%
- AUC0-last Intravenous [1, 6]: 140.8 ± 24.9 µg·h/mL
- CLtotal Intravenous [1, 6]: 0.62 ± 0.11 mL/min/kg
- Vd Intravenous [1, 6]: 0.52 ± 0.09 L/kg
- t1/2 Intravenous [1, 6]: 15.2 ± 3.8 h
- Iba-1 expression in DRG of oxaliplatin rats [2]: significantly reduced the expression
- GFAP expression in DRG of oxaliplatin rats [3]: significantly reduced the expression
- TRPA1 expression in DRG of oxaliplatin rats [4]: significant reduction in the expression
- p-ERK1/2 protein levels, oxaliplatin-treated neurons [5]: comparable to those of control cells
